# Measured values reported in article PMC10819771 (Pharmaceuticals, 2023).
# Assays:
# [1] = test system: FBCL-2T; assay: FRET-melting, FBCL-2T; assay type: binding; details: DNA 0.2 μM, 10 mM KCl, 90 mM LiCl, pH 7.2
# Description: (§1) FRET-melting experiments were conducted on a Stratagene MX3005P (Thermo Fisher Scientific, Illkirch-Graffenstaden, France) real-time PCR equipment in 96-well plates on the DNA sequences reported in Table 4. Experiments were performed in 10 mM lithium cacodylate buffer (pH 7.2) and either 10 mM KCl and 90 mM LiCl (FK-RAST, FBCL-2T, F21T, and FdxT) or 1 mM KCl and 99 mM LiCl (Fc-MYCT) concentrations, depending on the Tm of the G4s alone. The DNA concentration was 0.2 µM. […] Data are presented as an average of three independent measurements, each conducted in duplicate conditions (λexc = 492 nm, λem = 516 nm, T interval = 25–95 °C, ramp: 25 °C for 5 min, then 1 °C/min, measurements every 1 °C, 8× magnification of the fluorescence signal).
# [2] = test system: human telomeric sequence F21T; assay: FRET-melting, F21T; assay type: binding; details: DNA 0.2 μM, 10 mM KCl, 90 mM LiCl, pH 7.2
# Description: as §1
# [3] = test system: FdxT; assay: FRET-melting, duplex control FdxT; assay type: binding; details: DNA 0.2 μM, 10 mM KCl, 90 mM LiCl, pH 7.2, hairpin duplex
# Description: as §1
# [4] = test system: FK-RAST; assay: FRET-melting, FK-RAST; assay type: binding; details: DNA 0.2 μM, 10 mM KCl, 90 mM LiCl, pH 7.2
# Description: as §1
# [5] = test system: FdxT (DNA, hairpin, hexaethylene glycol linker between 10 and 11) TATAGCTATATATAGCTATA; assay: FRET melting; details: 10 mM K+, 90 mM Li+; 10 mM lithium cacodylate pH 7.2; 0.2 µM DNA, 0.5 µM compound
# [6] = test system: F21T (DNA, G4) GGGTTAGGGTTAGGGTTAGGG; assay: FRET melting; details: 10 mM K+, 90 mM Li+; 10 mM lithium cacodylate pH 7.2; 0.2 µM DNA, 0.5 µM compound
# [7] = test system: Fc-MYCT; assay: FRET-melting, Fc-MYCT; assay type: binding; details: DNA 0.2 μM, K+ conditions, pH 7.2
# Description: as §1
# [8] = test system: HeLa; assay: MTT antiproliferative assay, HeLa; assay type: cell-based, human; details: for IC50: Homo sapiens, HeLa, MTT, 72 h, cervical cancer cells, read-out: IC50 Values (μM) ± SEM HeLa; for Selectivity Index HEK293/HeLa: IC50 HEK293 / IC50 HeLa
# Description: (§2) The growth-inhibitory effects of the compounds were determined by MTT (3-(4,5-dimethylthiazol-2-yl)-2,5-diphenyltetrazolium bromide) assay on selected cell lines, including HeLa and SiHa (cervical cancers), MDA-MB-231 and MCF-7 (breast cancers), and A2780 ovarian cancer cells. All cell lines were purchased from the European Collection of Cell Cultures (Salisbury, UK) except SiHa, which was obtained from the American Tissue Culture Collection (Manassas, VA, USA). The cells were kept in minimum essential medium supplemented with 10% fetal bovine serum, 1% non-essential amino acids, and 1% penicillin-streptomycin-amphotericin-B at 37 °C in a humidified atmosphere containing 5% CO2. Media and supplements were obtained from Lonza Group Ltd., (Basel, Switzerland). Cancer cells were seeded onto 96-well plates (5000 cells/well), after an overnight incubation the test compounds were added in six concentrations (0.1, 0.3, 1.0, 3.0, 10.0, 30.0 µM) and incubated for 72 h under cell-culture condition. After the incubation, 20 μL of 5 mg/mL MTT solution was added to each well and incubated for a further 4 h. The medium was removed, and the precipitated formazan crystals were dissolved in DMSO for 30 min under shaking at 37 °C. The absorbance was measured at 545 nm with a microplate reader. Untreated cells were included as controls. Calculations were performed by means of the GraphPad Prism 5.01 software (GraphPad Software Inc., San Diego, CA, USA). At least two independent determinations were performed with 5 parallel wells for each condition.
# [9] = test system: A2780; assay: MTT antiproliferative assay, A2780; assay type: cell-based, human; details: for IC50: Homo sapiens, A2780, MTT, 72 h, ovarian cancer cells, read-out: IC50 Values (μM) ± SEM A2780; for Selectivity Index HEK293/A2780: IC50 HEK293 / IC50 A2780
# Description: as §2
# [10] = test system: HEK293; assay: MTT proliferation test on normal cells, HEK293; assay type: cell-based; details: Homo sapiens, normal epithelial cells, cytotoxicity, read-out: IC50 Values (μM) ± SEM HEK293
# Description: The MTT proliferation test on the epithelial cell line HEK293 was performed as pre-viously described. The 50% inhibiting concentrations (IC50) were determined by linear regression analysis.
# [11] = test system: K562; assay: MTS cell proliferation assay, K562; assay type: cell-based, human; details: for IC50: Homo sapiens, K562, 72 h, MTS, 3-day incubation, leukemia cells, read-out: IC50 Values (μM) ± SEM K562; for Selectivity Index HEK293/K562: IC50 HEK293 / IC50 K562
# Description: The human leukemic cell line K562 was grown in RPMI 1640 medium (Life Technology-Invitrogen by Thermo Fisher Scientific, Saint-Aubin, France) supplemented with 10% fetal calf serum (FCS), antibiotics (100 U/mL penicillin, 100 µg/mL streptomycin), and L-glutamine, (Eurobio, Les Ulis, France) at 37 °C, 5% CO2 in air. The MTS cell proliferation assay (Promega, Charbonnières-les-Bains, France) is a colorimetric assay system, which measures the transformation of a tetrazolium component (MTS) into formazan produced by the mitochondria of viable cells. Cells were washed twice in PBS (Phosphate Buffer Saline) and plated in quadruplicate into microtiter-plate wells in 100 μL culture media with or without our various compounds at increasing concentrations (0, 1, 5, 10, 20, and 50 μM) for 1, 2, and 3 days. After 3 h of incubation at 37 °C with 20 μL MTS/well, the plates were read using an ELISA microplate reader (Thermo, Electrocorporation, Waltham, MA, USA) at 490 nm. The amount of color produced was directly proportional to the number of viable cells. The results are expressed as the concentrations inhibiting cell growth by 50% after a 3-day incubation period. The 50% cytotoxic concentrations (CC50) were determined by linear regression analysis, expressed in μM ± SD (Microsoft Excel).
# [12] = test system: MDA-MB-231; assay: MTT antiproliferative assay, MDA-MB-231; assay type: cell-based, human; details: for IC50: Homo sapiens, MDA-MB-231, 72 h, MTT, 72 h, breast cancer cells, read-out: IC50 Values (μM) ± SEM MDA-MB-231; for Selectivity Index HEK293/MDA-MB-231: IC50 HEK293 / IC50 MDA-MB-231
# Description: as §2
# [13] = test system: SiHa; assay: MTT antiproliferative assay, SiHa; assay type: cell-based, human; details: for IC50: Homo sapiens, SiHa, MTT, 72 h, cervical cancer cells, read-out: IC50 Values (μM) ± SEM SiHa; for Selectivity Index HEK293/SiHa: IC50 HEK293 / IC50 SiHa
# Description: as §2
# [14] = test system: MCF-7; assay: MTT antiproliferative assay, MCF-7; assay type: cell-based, human; details: for IC50: Homo sapiens, MCF7, 72 h, MTT, 72 h, breast cancer cells, read-out: IC50 Values (μM) ± SEM MCF-7; for Selectivity Index HEK293/MCF-7: IC50 HEK293 / IC50 MCF-7
# Description: as §2
Compound,IC50 [8],Selectivity Index HEK293/HeLa [8],ΔT1/2 (°C) FBCL-2T ([1]; ligand 2 μM),IC50 [9],Selectivity Index HEK293/A2780 [9],ΔT1/2 (°C) F21T ([2]; ligand 2 μM),IC50 [10],IC50 [11],Selectivity Index HEK293/K562 [11],ΔT1/2 (°C) FdxT ([3]; ligand 2 μM),ΔT1/2 (°C) FK-RAST ([4]; ligand 2 μM),IC50 [12],Selectivity Index HEK293/MDA-MB-231 [12],IC50 [13],Selectivity Index HEK293/SiHa [13],IC50 [14],Selectivity Index HEK293/MCF-7 [14],ΔT1/2 (°C) Fc-MYCT ([7]; ligand 2 μM),further results
"C[n+]1cc(NC(=O)c2ccc3ccc4ccc(C(=O)Nc5cc6ccccc6[n+](C)c5)nc4c3n2)cc2ccccc21 [PhenDC3, reference compound]",–,–,–,–,–,–,–,–,–,–,–,–,–,–,–,–,–,–,ΔT1/2 (°C) FBCL-2T ([1]; ligand 0.5 μM): 13.1 ± 0.1 °C; ΔT1/2 (°C) F21T ([2]; ligand 0.5 μM): 21.2 ± 0.5 °C; ΔT1/2 (°C) FdxT ([3]; ligand 0.5 μM): −0.6 ± 0.1 °C; ΔT1/2 (°C) FK-RAST ([4]; ligand 0.5 μM): 16.9 ± 0.4 °C; ΔT1/2 [5]: -0.6 ± 0.1 °C; ΔT1/2 [6]: 21.2 ± 0.5 °C; ΔT1/2 (°C) Fc-MYCT ([7]; ligand 0.5 μM): 11.5 ± 0.3 °C
"CN(C)CCCCNCc1ccc(-c2nc(-c3ccc(CNCCCCN(C)C)cc3)c3ccc(-c4ccccc4)cc3n2)cc1 [Compound 12g, 2,4-bis{4-[(4-dimethylaminobutyl)aminomethyl]phenyl}-7-phenylquinazoline]",0.95 ± 0.51 µM,4.19,17.5 ± 0.6 °C,1.74 ± 0.89 µM,2.29,19.2 ± 1.0 °C,3.98 ± 0.12 µM,12 ± 0.3 µM,0.33,3.2 ± 0.3 °C,24.3 ± 1.1 °C,0.67 ± 0.35 µM,5.94,0.52 ± 0.22 µM,7.65,0.63 ± 0.35 µM,6.32,14.7 ± 0.8 °C,–
"CN1CCN(CCCCNCc2ccc(-c3nc(-c4ccc(CNCCCCN5CCN(C)CC5)cc4)c4ccc(-c5ccccc5)cc4n3)cc2)CC1 [Compound 12j, 2,4-bis{4-[(4-(4-methylpiperazin-1-yl)butyl)aminomethyl]phenyl}-7-phenylquinazoline]",1.48 ± 0.8 µM,3.31,9.8 ± 1.0 °C,1.44 ± 0.1 µM,3.40,14.5 ± 1.2 °C,4.9 ± 0.15 µM,8 ± 0.2 µM,0.61,1.5 ± 0.4 °C,18.7 ± 1.6 °C,1.1 ± 0.15 µM,4.45,0.33 ± 0.08 µM,14.85,0.58 ± 0.25 µM,8.45,14.1 ± 0.3 °C,–
